The record followed here is patent US20220030867A1 (priority 2018, published 2022).

Data set [1] relates to Magnaporthe grisea (Pyricularia oryzae). The experiment in a line: whole plant or invertebrate. Format: in vivo, Magnaporthe grisea on rice leaf segments cv. Ballila. As to conditions: foliar, read-out: control of Magnaporthe grisea.
The next data set has as its system Fusarium culmorum. The experiment in a line: whole plant or invertebrate. The note with it: in Triticum aestivum, read-out: control of Fusarium culmorum. Format: in vivo, Fusarium culmorum on wheat spikelets cv. Monsun.

With `Cc1nc2c(F)cccc2cc1NC(=O)C(C)(Cc1cccc(F)c1)CC(F)(F)F` (stereo not shown) [Compound E-8, 4,4,4-trifluoro-N-(8-fluoro-2-methyl-3-quinolyl)-2-[(3-fluorophenyl)methyl]-2-methyl-butanamide], the pest or weed control at 200 ppm (in data set [1]; in the data set with Fusarium culmorum) was no less than 80% throughout.

The term melting point denotes the temperature, or range, at which the solid turns liquid. The compound `Cc1nc2c(Cl)cccc2cc1NC(=O)C(C)(Cc1ccccc1)CC(C)C` (stereo not shown) [Compound E-13, 2-benzyl-N-(8-chloro-2-methyl-3-quinolyl)-2,4-dimethyl-pentanamide] displayed a melting point of 99 to 100 °C. The pest or weed control at 200 ppm in data set [1] was no less than 80%.

In the case of `Cc1nc2c(Cl)cccc2cc1NC(=O)C(C)(Cc1ccccc1)CC(F)(F)F` (stereo not shown) [Compound E-17, 2-benzyl-N-(8-chloro-2-methyl-3-quinolyl)-4,4,4-trifluoro-2-methyl-butanamide], the melting point lay in the range of 47 to 50 °C. In addition, in data set [1], the pest or weed control at 200 ppm is no less than 80%.

As for `CC(Cc1ccc(F)cc1)(CC(F)(F)F)C(=O)Nc1cnc2c(F)cccc2c1` (stereo not shown) [Compound E-18, 4,4,4-trifluoro-2-[(4-fluorophenyl)methyl]-N-(8-fluoro-3-quinolyl)-2-methyl-butanamide], the pest or weed control at 200 ppm in data set [1] is no less than 80%.

Regarding `Cc1c(NC(=O)C(Cc2ccccc2)CC(C)C)cnc2c(F)cccc12` (stereo not shown) [Compound E-19, 2-benzyl-N-(8-fluoro-4-methyl-3-quinolyl)-4-methyl-pentanamide], the pest or weed control at 200 ppm (in data set [1]; in the data set on Fusarium culmorum) was no less than 80% each time.

The compound `C=C(Cl)CC(C)(Cc1ccccc1)C(=O)Nc1cnc2c(F)cccc2c1C` (stereo not shown) [Compound E-20, 2-benzyl-4-chloro-N-(8-fluoro-4-methyl-3-quinolyl)-2-methyl-pent-4-enamide] displayed a melting point of 124 to 126 °C. For the same compound, the pest or weed control at 200 ppm in data set [1] is no less than 80%. In addition, in the data set on Fusarium culmorum, the pest or weed control at 200 ppm was no less than 80%.

Compound `C=C(Cl)CC(C)(Cc1ccccc1)C(=O)Nc1cc2cccc(F)c2nc1C` (stereo not shown) [Compound E-21, 2-benzyl-4-chloro-N-(8-fluoro-2-methyl-3-quinolyl)-2-methyl-pent-4-enamide] came in with a melting point of 121 to 123 °C. Also, the pest or weed control at 200 ppm in data set [1] was no less than 80%. Moreover, in the data set with Fusarium culmorum, the pest or weed control at 200 ppm was no less than 80%.

Regarding `C#CCC(C)(Cc1ccccc1)C(=O)Nc1cnc2c(F)cccc2c1` (stereo not shown) [Compound E-26, 2-benzyl-N-(8-fluoro-3-quinolyl)-2-methyl-pent-4-ynamide], the melting point lay in the range of 189 to 191 °C. Besides, the pest or weed control at 200 ppm in data set [1] was no less than 80%.

The compound `CCCCC(C)(Cc1ccccc1)C(=O)Nc1cnc2c(F)cccc2c1` (stereo not shown) [Compound E-27, 2-benzyl-N-(8-fluoro-3-quinolyl)-2-methyl-hexanamide] showed a melting point of 135 to 137 °C. Besides, the pest or weed control at 200 ppm in data set [1] is no less than 80%.

Turning to `CC#CCC(Cc1ccccc1)C(=O)Nc1cnc2c(F)cccc2c1` (stereo not shown) [Compound E-29, 2-benzyl-N-(8-fluoro-3-quinolyl)hex-4-ynamide], the melting point is 218 to 220 °C. For the same compound, the pest or weed control at 200 ppm in data set [1] is no less than 80%.

`CC#CCC(C)(Cc1ccccc1)C(=O)Nc1cnc2c(F)cccc2c1` (stereo not shown) [Compound E-30, 2-benzyl-N-(8-fluoro-3-quinolyl)-2-methyl-hex-4-ynamide] showed a melting point of 136 to 138 °C. Moreover, the pest or weed control at 200 ppm in data set [1] is no less than 80%.

As to `Cc1nc2c(F)cccc2cc1NC(=O)C(Cc1ccccc1)CC(F)(F)F` (stereo not shown) [Compound E-44, 2-benzyl-4,4,4-trifluoro-N-(8-fluoro-2-methyl-3-quinolyl)-butanamide], the pest or weed control at 200 ppm (in data set [1]; with Fusarium culmorum) was no less than 80% throughout.

For the compound `Cc1c(NC(=O)C(Cc2ccccc2)CC(F)(F)F)cnc2c(F)cccc12` (stereo not shown) [Compound E-45, 2-benzyl-4,4,4-trifluoro-N-(8-fluoro-4-methyl-3-quinolyl)-butanamide], the melting point was in the range of 165 to 167 °C. The pest or weed control at 200 ppm in data set [1] is no less than 80%. The pest or weed control at 200 ppm with Fusarium culmorum was no less than 80%.

Take `C=C(C)CC(CC)(Cc1ccccc1)C(=O)Nc1cnc2c(F)cccc2c1` (stereo not shown) [Compound E-46, 2-benzyl-2-ethyl-N-(8-fluoro-3-quinolyl)-4-methyl-pent-4-enamide]: in data set [1], the pest or weed control at 200 ppm was no less than 80%.

Regarding `C=C(Cl)CC(C)(Cc1ccccc1)C(=O)Nc1cnc2c(F)cccc2c1` (stereo not shown) [Compound E-53, 2-benzyl-4-chloro-N-(8-fluoro-3-quinolyl)-2-methyl-pent-4-enamide], the melting point is 148 to 150 °C. Besides, in the data set with Fusarium culmorum, the pest or weed control at 200 ppm was no less than 80%.

Regarding `O=C(Nc1cnc2c(F)cccc2c1)C(Cc1ccccc1)CC(F)(F)Cl` (stereo not shown) [Compound E-58, 2-benzyl-4-chloro-4,4-difluoro-N-(8-fluoro-3-quinolyl)butanamide], the melting point lay within 65 to 70 °C. In the data set on Fusarium culmorum, the pest or weed control at 200 ppm is no less than 80%.

In turn, `Cc1cccc2cc(NC(=O)C(C)(Cc3ccccc3)CC(F)(F)F)cnc12` (stereo not shown) [Compound E-59, 2-benzyl-4,4,4-trifluoro-2-methyl-N-(8-methyl-3-quinolyl)-butanamide] displayed a melting point of 123 to 125 °C. Moreover, the pest or weed control at 200 ppm in the data set with Fusarium culmorum was no less than 80%.

`CC(Cc1ccccc1)(CC(F)(F)F)C(=O)Nc1cnc2c(F)c(F)ccc2c1` (stereo not shown) [Compound E-60, 2-benzyl-N-(7,8-difluoro-3-quinolyl)-4,4,4-trifluoro-2-methyl-butanamide] returned a melting point of 183 to 186 °C. In addition, the pest or weed control at 200 ppm in the data set with Fusarium culmorum is no less than 80%.

Compound `C=C(C)CC(C)(Cc1ccccc1)C(=O)Nc1cnc2c(Br)cccc2c1` (stereo not shown) [Compound E-63, 2-benzyl-N-(8-bromo-3-quinolyl)-2,4-dimethyl-pent-4-enamide] showed a melting point of 165 to 169 °C. In the data set with Fusarium culmorum, the pest or weed control at 200 ppm is no less than 80%.

Regarding `CC(F)(F)CC(C)(Cc1ccccc1)C(=O)Nc1cnc2c(F)cccc2c1` (stereo not shown) [Compound E-68, 2-benzyl-4,4-difluoro-N-(8-fluoro-3-quinolyl)-2-methyl-pentanamide], the melting point fell in the range of 156 to 158 °C. The pest or weed control at 200 ppm in the data set with Fusarium culmorum is no less than 80%.

The compound `C=C(F)CC(C)(Cc1ccccc1)C(=O)Nc1cnc2c(F)cccc2c1` (stereo not shown) [Compound E-71, 2-benzyl-4-fluoro-N-(8-fluoro-3-quinolyl)-2-methyl-pent-4-enamide] had a melting point of 132 to 134 °C. The pest or weed control at 200 ppm in the data set on Fusarium culmorum was no less than 80%.

`C=C(C)CC(C)(Cc1ccccc1)C(=O)Nc1cnc2c(F)cccc2c1` (stereo not shown) [Compound E-74, 2-benzyl-N-(8-fluoro-3-quinolyl)-2,4-dimethyl-pent-4-enamide] registered a melting point of 147 to 149 °C. For the same compound, the pest or weed control at 200 ppm in the data set with Fusarium culmorum is no less than 80%.

For `CC(Cc1ccccc1)(CC1CC1)C(=O)Nc1cnc2c(F)cccc2c1` (stereo not shown) [Compound E-76, 2-benzyl-3-cyclopropyl-N-(8-fluoro-3-quinolyl)-2-methyl-propanamide], the melting point was in the range of 157 to 159 °C. In data set [1], the pest or weed control at 200 ppm was no less than 80%.

With `CC(Cc1ccccc1)(CC(F)(F)F)C(=O)Nc1cnc2c(F)cccc2c1` (stereo not shown) [Compound E-80, 2-benzyl-4,4,4-trifluoro-N-(8-fluoro-3-quinolyl)-2-methyl-butanamide], the pest or weed control at 200 ppm (in data set [1]; in the data set with Fusarium culmorum) was no less than 80% each time.

`O=C(Nc1cnc2c(F)cccc2c1)C(Cc1ccccc1)CC(F)(F)F` (stereo not shown) [Compound E-82, 2-benzyl-4,4,4-trifluoro-N-(8-fluoro-3-quinolyl)butanamide] returned a melting point of 161 to 164 °C. The pest or weed control at 200 ppm with Fusarium culmorum was no less than 80%.

`CC(C)CC(C)(Cc1ccccc1)C(=O)Nc1cnc2c(F)cccc2c1` (stereo not shown) [Compound E-87, 2-benzyl-N-(8-fluoro-3-quinolyl)-2,4-dimethyl-pentanamide]: the melting point was 140 to 142 °C. For the same compound, in the data set with Fusarium culmorum, the pest or weed control at 200 ppm is no less than 80%.

In the case of `CC(C)(C)C(Cc1ccccc1)C(=O)Nc1cnc2c(F)cccc2c1` (stereo not shown) [Compound E-88, 2-benzyl-N-(8-fluoro-3-quinolyl)-3,3-dimethyl-butanamide], the melting point was 212 to 215 °C. Also, the pest or weed control at 200 ppm with Fusarium culmorum was no less than 80%.

Turning to `C=C(C)C[C@@](C)(Cc1ccccc1)C(=O)Nc1cc2cccc(F)c2nc1C` [Compound F-1, (2S)-2-benzyl-N-(8-fluoro-2-methyl-3-quinolyl)-2,4-dimethyl-pent-4-enamide], the pest or weed control at 200 ppm (in data set [1]; with Fusarium culmorum) was no less than 80% in each case.

Consider `C=C(C)C[C@](C)(Cc1ccccc1)C(=O)Nc1cc2cccc(F)c2nc1C` [Compound F-2, (2R)-2-benzyl-N-(8-fluoro-2-methyl-3-quinolyl)-2,4-dimethyl-pent-4-enamide], for which the pest or weed control at 200 ppm (in data set [1]; in the data set with Fusarium culmorum) was no less than 80% in each case.

`C=C(C)C[C@](C)(Cc1ccccc1)C(=O)Nc1cnc2c(F)cccc2c1C` [Compound F-6, (2R)-2-benzyl-N-(8-fluoro-4-methyl-3-quinolyl)-2,4-dimethyl-pent-4-enamide]: the pest or weed control at 200 ppm (in data set [1]; in the data set on Fusarium culmorum) was no less than 80% in each case.

`CC1(C[C@](C)(Cc2ccccc2)C(=O)Nc2cnc3c(F)cccc3c2)CC1` [Compound F-9, (2R)-2-benzyl-N-(8-fluoro-3-quinolyl)-2-methyl-3-(1-methylcyclopropyl)propanamide]: the pest or weed control at 200 ppm (in data set [1]; with Fusarium culmorum) was no less than 80% each time.

On to `Cc1nc2c(F)cccc2cc1NC(=O)[C@](C)(Cc1ccccc1)CC(F)(F)F` [Compound F-11, (2R)-2-benzyl-4,4,4-trifluoro-N-(8-fluoro-2-methyl-3-quinolyl)-2-methyl-butanamide], for which the pest or weed control at 200 ppm (in data set [1]; in the data set on Fusarium culmorum) was no less than 80% throughout.

Turning to `Cc1nc2c(F)cccc2cc1NC(=O)[C@@](C)(Cc1ccccc1)CC(F)(F)F` [Compound F-12, (2S)-2-benzyl-4,4,4-trifluoro-N-(8-fluoro-2-methyl-3-quinolyl)-2-methyl-butanamide], the pest or weed control at 200 ppm (in data set [1]; with Fusarium culmorum) was no less than 80% in each case.
